pIC50: −log10 of the molar value.
System: SARS-CoV-2
Assay: microbe, parasite or virus in culture
Conditions: Severe acute respiratory syndrome coronavirus 2, Vero C1008, 48 h; for IC50: read-out: pIC50 (converted)

| SMILES | pIC50 | IC50 [µM] |
| --- | --- | --- |
| CC(C)N(CCC(c1ccccc1)c1ccccc1)C(C)C [DIISOPROMINE] | < 4.70 | > 20 |
| O=NN(CCCl)C(=O)NCCCl [CARMUSTINE] | < 4.70 | > 20 |
| CCCC/N=C(/c1cc(Cl)ccc1O)c1ccccc1Cl [FENGABINE] | < 4.70 | > 20 |
| CCOC(=O)[C@H](CCc1ccccc1)N[C@H]1CCCN2CCC[C@@H](C(=O)O)N2C1=O [CILAZAPRIL] | < 4.70 | > 20 |
| CC(C)OC(=O)[C@H](C)N[P@](=O)(OC[C@@]1(F)O[C@@H](n2ccc(=O)[nH]c2=O)[C@](C)(O)[C@@H]1O)Oc1ccccc1 [ADAFOSBUVIR] | < 4.70 | > 20 |
| CCNC(=O)N1CCN(CCCC(c2ccc(F)cc2)c2ccc(F)cc2)CC1 [AMPEROZIDE] | < 4.70 | > 20 |
| CC(C(=O)O)c1ccc2c(c1)Cc1cccnc1O2 (stereo not given) [PRANOPROFEN] | < 4.70 | > 20 |
| Cc1cn2nc([C@@H]3CCCCN3C(=O)c3cc(Cl)ccc3NS(C)(=O)=O)cc2nc1N1CC[C@H](N)C1 [PRESATOVIR] | < 4.70 | > 20 |
| COCCO[C@@H]1c2ccn3c(C)c(C)nc3c2N[C@H](c2ccccc2)[C@H]1O [SORAPRAZAN] | < 4.70 | > 20 |
| O=C(O)C1CCCN(CCC=C2c3ccccc3CCc3ccccc32)C1 (stereo not given) | < 4.70 | > 20 |
| COC(=O)N1CCN(Cc2cccc(NC(=O)Nc3ccc(C)nc3)c2F)CC1 [OMECAMTIV MECARBIL] | < 4.70 | > 20 |
| C[C@]1(O)CC[C@H]2[C@@H]3CC[C@@]45O[C@]4(C)C(O)=C(C#N)C[C@]5(C)[C@H]3CC[C@@]21C [EPOSTANE] | < 4.70 | > 20 |
| CC12CC3CC(C)(C1)CC(N)(C3)C2 [MEMANTINE] | < 4.70 | > 20 |
| O=C1CN(/N=C/c2ccc(-c3ccc([N+](=O)[O-])cc3)o2)C(=O)N1 [DANTROLENE] | < 4.70 | > 20 |
| CC(C)C[C@H](NC(=O)OCC1c2ccccc2-c2ccccc21)C(=O)O | < 4.70 | > 20 |
| CC(CN(C)C)CN1c2ccccc2OCOc2ccc(Cl)cc21 (stereo not given) [TRABOXOPINE] | < 4.70 | > 20 |
| OC[C@H]1OC(O)[C@H](O)[C@@H](O)[C@@H]1O (stereo not given in full) [DEXTROSE] | < 4.70 | > 20 |
| Nc1ccc(S(=O)(=O)Nc2nccs2)cc1 [SULFATHIAZOLE] | < 4.70 | > 20 |
| O=C(O)c1ccccc1Nc1cccc(OCc2ccc3ccccc3n2)c1 [SR-2640] | < 4.70 | > 20 |
| CCC(=O)O[C@]1(C(=O)CCl)[C@@H](C)C[C@H]2[C@@H]3CCC4=CC(=O)C=C[C@]4(C)[C@@]3(F)[C@@H](O)C[C@@]21C [CLOBETASOL PROPIONATE] | < 4.70 | > 20 |
| CC(=O)OC1CCC2(C)C3CC(=O)C4(C)C(C(C)=O)=CCC4C3CC[C@H]2C1 (stereo not given in full) | < 4.70 | > 20 |
| CC1(C)Cc2c(-c3ccccc3)c(-c3ccc(Cl)cc3)c(CC(=O)O)n2C1 [LICOFELONE] | < 4.70 | > 20 |
| CCCCNc1cc(C(=O)O)cc(S(N)(=O)=O)c1Oc1ccccc1 [BUMETANIDE] | < 4.70 | > 20 |
| O=c1[nH]c(=O)n(C2CC(O)C(CO)O2)cc1Br (stereo not given) | < 4.70 | > 20 |
| Cc1nc(C(=O)NCC(=O)O)c(O)c2ccc(Oc3ccccc3)cc12 [ROXADUSTAT] | < 4.70 | > 20 |

| SMILES | pIC50 | IC50 [µM] |
| --- | --- | --- |
| CS(=O)(=O)CCC#N | < 4.70 | > 20 |
| CC1(COc2ccc(CC3SC(=O)NC3=O)cc2)CCCCC1 (stereo not given) [CIGLITAZONE] | < 4.70 | > 20 |
| COc1cc2c(cc1OC)CC(=O)N(CCCN(C)C[C@H]1Cc3cc(OC)c(OC)cc31)CC2 [IVABRADINE] | < 4.70 | > 20 |
| COc1ccc(C(=O)CC(=O)O)c2c1C=CC(C)(C)O2 [URSINOIC ACID] | < 4.70 | > 20 |
| O=C(CO)[C@@H]1CCCN1C(=O)[C@@H]1CCCN1C(=O)NCc1ccccc1 | < 4.70 | > 20 |
| CC1CCN(CCCC(=O)c2ccc(F)cc2)CC1 [MELPERONE] | < 4.70 | > 20 |
| CN(C)CCc1c[nH]c2ccc(Cn3cncn3)cc12 [RIZATRIPTAN] | < 4.70 | > 20 |
| NS(=O)(=O)c1ccc(N2CCN(CC[C@@H]3OCCc4ccccc43)CC2)cc1 [SONEPIPRAZOLE] | < 4.70 | > 20 |
| CCOc1cc(-c2nccc3cc(OC)c(OC)cc23)cc(OCC)c1OCC [OCTAVERINE] | < 4.70 | > 20 |
| CC(=O)N1CCC(=C2c3ccc(Cl)cc3CCc3cccnc32)CC1 [SCH-37370] | < 4.70 | > 20 |
| NCC(CC(=O)O)c1ccc(Cl)cc1 (stereo not given) [BACLOFEN] | < 4.70 | > 20 |
| O=C(CCCN1CCC(O)(c2ccc(Cl)cc2)CC1)c1ccc(F)cc1 [HALOPERIDOL] | < 4.70 | > 20 |
| CCN1CCN(c2cc3c(cc2F)c(=O)c(C(=O)O)cn3C2CC2)CC1 [ENROFLOXACIN] | < 4.70 | > 20 |
| NCCc1cc[nH]n1 [BETAZOLE] | < 4.70 | > 20 |
| COC(=O)OC[C@H]1O[C@@H](Oc2cc(C)cc(O)c2C(=O)CCc2ccc3occc3c2)[C@H](O)[C@@H](O)[C@@H]1O | < 4.70 | > 20 |
| CC(C)C(=O)OC[C@@]1(N=[N+]=[N-])O[C@@H](n2ccc(N)nc2=O)[C@H](OC(=O)C(C)C)[C@@H]1OC(=O)C(C)C [BALAPIRAVIR] | < 4.70 | > 20 |
| Cc1ccc(C(C)C)c(O)c1 [THYMOL] | < 4.70 | > 20 |
| CCCCCCCCCCCCCCC1(C(=O)O)CO1 (stereo not given) [PALMOXIRATE] | < 4.70 | > 20 |
| CC(CCc1ccc(O)cc1)NCCc1ccc(O)c(O)c1 (stereo not given) [DOBUTAMINE] | < 4.70 | > 20 |
| CCNC(=O)/C=C/c1cccc(Br)c1 [CINROMIDE] | < 4.70 | > 20 |
| CN1CCC(O)(c2ccc(F)cc2)C(C(=O)c2ccc(F)cc2)C1 (stereo not given) [FLAZALONE] | < 4.70 | > 20 |
| CC(C)=CCOc1cc(NC(=S)c2ccoc2C)ccc1Cl [UC 781] | < 4.70 | > 20 |
| CC1N(CC(=O)c2ccccc2)CCCC1(C)c1cccc(O)c1 (stereo not given) [MYFADOL] | < 4.70 | > 20 |
| COc1ccc2c(c1)c(CC(=O)OCC(=O)O)c(C)n2C(=O)c1ccc(Cl)cc1 [ACEMETACIN] | < 4.70 | > 20 |
| COc1cc(N)c(Cl)cc1C(=O)N[C@H]1CCNC[C@H]1OC | < 4.70 | > 20 |

| SMILES | pIC50 | IC50 [µM] |
| --- | --- | --- |
| CCC(N)Cc1c[nH]c2ccccc12 (stereo not given) [ETRYPTAMINE] | < 4.70 | > 20 |
| C[N+](C)(C)CC(O)CC(=O)[O-] (stereo not given) [CARNITINE] | < 4.70 | > 20 |
| C[C@H]1O[C@@H](O[C@H]2[C@@H](O)C[C@H](O[C@H]3[C@@H](O)C[C@H](O[C@H]4CC[C@@]5(C)[C@H](CC[C@@H]6[C@@H]5CC[C@]5(C)[C@@H](C7=CC(=O)OC7)[C@@H](O)C[C@]65O)C4)O[C@@H]3C)O[C@@H]2C)C[C@H](O)[C@@H]1O [GITOXIN] | < 4.70 | > 20 |
| COc1cc(C(=O)NCCCCCC(=O)O)cc(OC)c1OC [CAPOBENIC ACID] | < 4.70 | > 20 |
| Cc1cccc(OCC(O)CNC(C)C)c1 (stereo not given) [TOLIPROLOL] | < 4.70 | > 20 |
| CC(=O)c1ccc2c(c1)C(=O)C1(CC1)O2 [SPIZOFURONE] | < 4.70 | > 20 |
| NC(C(=O)O)C(O)c1ccc(O)c(O)c1 (stereo not given) | < 4.70 | > 20 |
| CC(=O)c1cc2c(o1)C(=O)c1ccccc1C2=O [NAPABUCASIN] | < 4.70 | > 20 |
| COC(=O)C1=C(C)NC(C)=C(C(=O)OC)C1c1ccccc1[N+](=O)[O-] [NIFEDIPINE] | < 4.70 | > 20 |
| O=c1cc(-c2ccc(O)c(O)c2)oc2cc(O)cc(O)c12 [LUTEOLIN] | < 4.70 | > 20 |
| COc1cc2c(cc1OC)C(C)NCC2 (stereo not given) | < 4.70 | > 20 |
| COc1ccccc1Oc1c(NS(=O)(=O)c2ccc(C(C)(C)C)cc2)nc(-c2ncccn2)nc1OCCO [BOSENTAN] | < 4.70 | > 20 |
| CN1CC[C@@]2(C)c3cc(O)ccc3N(C)[C@H]12 | < 4.70 | > 20 |
| CC(=O)OCC(=O)[C@@]1(OC(C)=O)[C@@H](C)C[C@H]2[C@@H]3C[C@H](F)C4=CC(=O)C=C[C@]4(C)[C@@]3(F)[C@@H](O)C[C@@]21C [DIFLORASONE DIACETATE] | < 4.70 | > 20 |
| CNC(=O)[C@H]1O[C@@H](n2cnc3c(NCc4cccc(I)c4)ncnc32)[C@@H](O)[C@H]1O | < 4.70 | > 20 |
| O=C(O)c1ccccc1Nc1ccccc1 [FENAMIC ACID] | < 4.70 | > 20 |
| CCc1cc(/C(C)=N/OCc2ccc(C3CCCCC3)c(C(F)(F)F)c2)ccc1CN1CC(C(=O)O)C1 [SIPONIMOD] | < 4.70 | > 20 |
| O=C1CN=C(c2ccccc2Cl)c2cc([N+](=O)[O-])ccc2N1 [CLONAZEPAM] | < 4.70 | > 20 |
| O=C1C(=O)c2ncccc2-c2cccnc21 [PHANQUONE] | < 4.70 | > 20 |
| O=C(O)c1cc(O)c(O)c(O)c1 [GALLIC ACID] | < 4.70 | > 20 |
| Cc1ccc(C(=O)c2cc(O)c(O)c([N+](=O)[O-])c2)cc1 [TOLCAPONE] | < 4.70 | > 20 |
| OC(CSc1ncnc2[nH]cnc12)CN1CCN(C(c2ccc(F)cc2)c2ccc(F)cc2)CC1 (stereo not given) [CARSATRIN] | < 4.70 | > 20 |
| CN1[C@@H]2CC[C@H]1C[C@@H](OC(=O)c1cc(Cl)cc(Cl)c1)C2 [BEMESETRON] | < 4.70 | > 20 |
| Fc1ccc(-c2ccc3c(c2)[nH]c2ccncc23)cn1 [FLORTAUCIPIR] | < 4.70 | > 20 |
| CCc1c(C(=O)c2cc(C)cc(C)c2)n(CC2CC=CC2)c(=O)[nH]c1=O | < 4.70 | > 20 |

— ChEMBL document CHEMBL4651402, “Screening of ~5500 FDA-approved drugs and clinical candidates for anti-SARS-CoV-2 activity” (2021)
